For 26 molecules, DC50 results are on record in patent US12655135B2, “Benzo seven-membered ring bifunctional compound and application thereof” (CHIA TAI TIANQING PHARMACEUTICAL GROUP CO., LTD., priority 2021, dated 2026).

The structures appear in SMILES notation.

The test addresses T1, ERα (Homo sapiens, UniProt P03372).
T1 construct: endogenous in cells; host or cells: MCF-7
T1 sequence (P03372 1-595): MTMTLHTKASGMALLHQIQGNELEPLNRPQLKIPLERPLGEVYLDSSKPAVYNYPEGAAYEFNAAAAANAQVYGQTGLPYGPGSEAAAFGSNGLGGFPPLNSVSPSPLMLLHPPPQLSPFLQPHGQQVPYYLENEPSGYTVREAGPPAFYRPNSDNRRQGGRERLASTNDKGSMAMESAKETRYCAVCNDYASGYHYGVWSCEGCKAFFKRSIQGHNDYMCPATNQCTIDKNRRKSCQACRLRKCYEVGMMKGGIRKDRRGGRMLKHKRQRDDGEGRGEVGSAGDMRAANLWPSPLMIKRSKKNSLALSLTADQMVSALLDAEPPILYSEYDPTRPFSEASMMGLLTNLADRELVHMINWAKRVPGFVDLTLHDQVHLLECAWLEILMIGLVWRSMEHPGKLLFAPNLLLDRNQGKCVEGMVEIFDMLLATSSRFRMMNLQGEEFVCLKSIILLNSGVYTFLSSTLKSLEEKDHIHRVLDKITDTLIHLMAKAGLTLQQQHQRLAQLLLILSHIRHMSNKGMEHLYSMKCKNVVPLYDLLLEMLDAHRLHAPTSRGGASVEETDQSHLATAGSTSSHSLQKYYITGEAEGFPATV
The experiment in a line: MCF-7 ERα degradation experiment (Human Total ERα ELISA, 4 h incubation). Type of test: cell-based. The following applies: MCF-7 cells, 4 h incubation at 37° C., ERα by ELISA; Max well 100 nM FUL, Min well 0.5% DMSO; read-out: Degradation of ERα by compounds DC50. As to the method: Experimental Example 1: MCF-7 ERα Degradation Experiment
Compounds were tested for their ability to degrade ERα receptors under experimental conditions.
Phenol red-free MEM medium was purchased from Wisent, fetal bovine serum was purchased from Biosera, and Human Total ERα/NR3A1 ELISA kits were purchased from R&D. MCF-7 cell line was purchased from the Cell Bank of Type Culture Collection Committee of the Chinese Academy of Sciences. Nivo5 multi-marker analyzer (PerkinElmer).
• 1. MCF-7 cells were resuspended in medium (phenol red-free MEM+5% Charcoal Dextran Stripped FBS+1% PS), seeded in a 96-well clear cell culture plate, and incubated overnight in a carbon dioxide incubator; • 2. ELISA plate was coated with stripes, Human Total ERα Capture Antibody was diluted with 1×PBS, and the plate was incubated at 25° C. overnight. Day Two: • 1. Cell administration: The compounds to be tested were diluted to the 8th concentration. The concentration of the compound was 20 μM, and the compound was diluted successively to the 8th concentration of 0.256 nM at 4 μM. Two duplicate wells were set. The compound was transferred to the intermediate plate and then to the cell plate to give a final DMSO concentration of 0.5% per well, and the plate was incubated at 37° C. for 4 h; • 2. preparation of standard curve solution: 110 ng/mL of standard curve stock solution was 6-fold diluted with buffer #8 to give a solution with a concentration of 18.3 ng/mL. Then, 8-point gradient dilution was performed using buffer #3 with a final concentration of 200 pg/mL to 1.56 pg/mL; • 3. the ELISA plate was washed 3 times with a washing solution (1×PBS containing 0.05% Tween); • 4. 300 μL of blocking solution (1×PBS containing 1% BSA) was added to each well, and the plate was incubated at 25° C. for 2 h; • 5. 1×PBS was pre-cooled. After the incubation of the compound, the supernatant was removed, the plate was washed with pre-cooled 1×PBS, the cell lysate was added, and the cells were lysed on ice for 15 min; • 6. the blocking solution was removed from the ELISA plate, the plate was washed, and step 3 was repeated; • 7. after the cells were lysed, in the cell plate, the cell lysate was 6-fold diluted with 150 μL of buffer #8 per well, the mixture was pipetted and mixed well, and 100 μL of solution per well was transferred to the ELISA plate; • 8. at the same time, 100 μL of Standard per well was transferred to the ELISA plate and incubated overnight at 25° C. Day Three: • 1. The supernatant was removed, and the plate was washed 3 times with a washing solution; • 2. Human Total ERα Detection Antibody stock solution ([…]) was 36-fold diluted with buffer #1 (1×PBS containing 1% BSA), and the final concentration of Detection Antibody was 400 ng/mL. 100 μL/well of the solution was transferred to the ELISA plate, and the plate was incubated at 25° C. for 2 h; • 3. the plate was washed with buffer #1; • 4. Streptavidin-HRP A was 200-fold diluted with buffer #1 (1×PBS containing 1% BSA), 100 μL/well of the solution was transferred to the ELISA plate, and the plate was incubated at 25° C. for 20 min; • 5. the plate was washed with buffer #1; • 6. 100 μL of Substrate Solution per well (1:1 mixture of reagent A (H2O2) and reagent B (tetramethylbenzidine)) was added to the ELISA plate, and the plate was incubated at 25° C. for 20 min; • 7. […] of stop solution was added and the OD450 absorbance was read on a plate reader. Data Analysis: […]
(In general: An ELISA detects its analyte on a solid surface through an enzyme-linked reagent.)
For the molecule `O=C1CCC(N2Cc3cc(N4CCN(CCCCCOc5ccc(C6=C(c7ccccc7)CCCc7cc(O)ccc76)cc5)CC4)ccc3C2=O)C(=O)N1` (centres unmarked) [Compound 1], the DC50 amounted to 0.84 nM.
For `O=C1CCC(N2Cc3cc(N4CCN(CC5CCN(c6ccc(C7=C(c8ccccc8)CCCc8cc(O)ccc87)cc6)CC5)CC4)ccc3C2=O)C(=O)N1` (centres unmarked) [Compound 2], the DC50 was 2.69 nM.
For the molecule `O=C1CCC(N2Cc3cc(N4CCN(CC5CCN(c6ccc(C7=C(c8ccc(Cl)cc8Cl)CCCc8cc(C(=O)O)ccc87)cc6)CC5)CC4)ccc3C2=O)C(=O)N1` (centres unmarked) [Compound 3], the DC50 worked out at 5.8 nM.
On to `O=C1CC[C@H](N2Cc3cc(N4CCN(CCC5CCN(c6ccc(C7=C(c8ccccc8)CCCc8cc(O)ccc87)cc6)CC5)CC4)ccc3C2=O)C(=O)N1` [Compound 4], for which the DC50 worked out at 1.5 nM.
As to `O=C1CC[C@H](N2Cc3cc(N4CCN(CC5CCN(c6ccc(C7=C(c8ccc(Cl)cc8)CCCc8cc(O)ccc87)cc6)CC5)CC4)ccc3C2=O)C(=O)N1` [Compound 5], the DC50 turned out to be 1.8 nM.
Regarding `O=C1CC[C@H](N2Cc3cc(N4CCN(CC5CCN(c6ccc(C7=C(c8ccc(F)cc8)CCCc8cc(O)ccc87)cc6)CC5)CC4)ccc3C2=O)C(=O)N1` [Compound 6], the 50% degradation concentration (DC50) was found to be 1 nM.
For `COc1ccc2c(c1)CCCC(c1ccccc1)=C2c1ccc(N2CCC(CN3CCN(c4ccc5c(c4)CN([C@H]4CCC(=O)NC4=O)C5=O)CC3)CC2)cc1` [Compound 7], the DC50 was found to be 8 nM.
As for `COc1ccc2c(c1)CCCC(c1ccc(F)cc1)=C2c1ccc(N2CCC(CN3CCN(c4ccc5c(c4)CN([C@H]4CCC(=O)NC4=O)C5=O)CC3)CC2)cc1` [Compound 8], the figure is 8.3 nM; as for `O=C1CC[C@H](N2Cc3cc(N4CCN(CC5CCN(c6ccc(C7=C(c8ccc(O)cc8)CCCc8cc(O)ccc87)cc6)CC5)CC4)ccc3C2=O)C(=O)N1` [Compound 9], 0.4 nM.
As for `COc1ccc2c(c1)OCCC(c1ccccc1)=C2c1ccc(N2CCC(CN3CCN(c4ccc5c(c4)CN([C@H]4CCC(=O)NC4=O)C5=O)CC3)CC2)cc1` [Compound 10], the figure is 5.7 nM; as for `Cc1ccc(C2=C(c3ccc(N4CCC(CN5CCN(c6ccc7c(c6)CN([C@H]6CCC(=O)NC6=O)C7=O)CC5)CC4)cc3)c3ccc(O)cc3CCC2)cc1` [Compound 11], 1 nM.
For `O=C1CC[C@H](N2Cc3cc(N4CCN(CC5CCN(c6ccc(C7=C(c8ccccc8)CCCc8cc(C(=O)O)ccc87)cc6)CC5)CC4)ccc3C2=O)C(=O)N1` [Compound 12], the DC50 was determined as 4.73 nM.
For the molecule `O=C1CC[C@H](N2Cc3cc(N4CCN(CCC5CCN(c6ccc(C7=C(c8ccccc8)CCCc8cc(C(=O)O)ccc87)cc6)CC5)CC4)ccc3C2=O)C(=O)N1` [Compound 13], the DC50 was determined as 4.47 nM.
For the molecule `O=C1CC[C@H](N2Cc3cc(N4CCN(CC5CCN(c6ccc(C7=C(c8ccccc8)CCCc8cc(O)ccc87)cc6)CC5)CC4)ccc3C2=O)C(=O)N1` [Compound 14], the DC50 is 1.1 nM.
As to `O=C1CC[C@H](N2Cc3cc(N4CCN(CC5CCN(c6ccc(C7=C(c8ccc(C(F)(F)F)nc8)CCCc8cc(O)ccc87)cc6)CC5)CC4)ccc3C2=O)C(=O)N1` [Compound 15], the DC50 was 1.7 nM.
As for `Cc1ccc(C2=C(c3ccc(N4CCC(CN5CCN(c6ccc7c(c6)CN([C@H]6CCC(=O)NC6=O)C7=O)CC5)CC4)cc3)c3ccc(O)cc3CCC2)cn1` [Compound 16], the figure is 7.7 nM.
Regarding `O=C1CC[C@H](N2Cc3cc(N4CCN(CC5CCN(c6ccc(C7=C(c8ccc(C9CC9)nc8)CCCc8cc(O)ccc87)cc6)CC5)CC4)ccc3C2=O)C(=O)N1` [Compound 17], the DC50 came to 9.4 nM.
As for `Cc1nn(C)cc1C1=C(c2ccc(N3CCC(CN4CCN(c5ccc6c(c5)CN([C@H]5CCC(=O)NC5=O)C6=O)CC4)CC3)cc2)c2ccc(O)cc2CCC1` [Compound 18], the figure is 4.6 nM; as for `O=C1CC[C@H](N2Cc3cc(N4CCN(CC5CCN(c6ccc(C7=C(c8ccc(F)nc8)CCCc8cc(O)ccc87)cc6)CC5)CC4)ccc3C2=O)C(=O)N1` [Compound 19], 2.1 nM; as for `O=C1CC[C@H](N2Cc3cc(N4CCN(CC5CCN(c6ccc(C7=C(c8ccncc8)CCCc8cc(O)ccc87)cc6)CC5)CC4)ccc3C2=O)C(=O)N1` [Compound 20], 0.9 nM.
As for `O=C1CC[C@H](N2Cc3cc(N4CCN(CC5CCN(c6ccc(C7=C(c8cccnc8)CCCc8cc(O)ccc87)cc6)CC5)CC4)ccc3C2=O)C(=O)N1` [Compound 21], the figure is 1.9 nM; as for `Cc1ccc(C2=C(c3ccc(N4CCC(CN5CCN(c6ccc7c(c6)CN([C@H]6CCC(=O)NC6=O)C7=O)CC5)CC4)cc3)c3ccc(O)cc3CCC2)c(C)n1` [Compound 22], 2.4 nM; as for `CC(C)(O)c1ccc(C2=C(c3ccc(N4CCC(CN5CCN(c6ccc7c(c6)CN([C@H]6CCC(=O)NC6=O)C7=O)CC5)CC4)cc3)c3ccc(O)cc3CCC2)cn1` [Compound 23], 1.4 nM.
As for `O=C1CC[C@H](N2Cc3cc(N4CCN(CC5CCN(c6ccc(C7=C(c8ccc(OC(F)F)cc8)CCCc8cc(O)ccc87)cc6)CC5)CC4)ccc3C2=O)C(=O)N1` [Compound 24], the figure is 0.7 nM.
As for `O=C1CC[C@H](N2Cc3cc(N4CCN(CC5CCN(c6ccc(C7=C(c8ccc(OC(F)(F)F)cc8)CCCc8cc(O)ccc87)cc6)CC5)CC4)ccc3C2=O)C(=O)N1` [Compound 25], the DC50 is 5.7 nM.
As for `O=C1CC[C@H](N2Cc3cc(N4CCN(CC5CCN(c6ccc(C7=C(c8ccc(OC9CC9)cc8)CCCc8cc(O)ccc87)cc6)CC5)CC4)ccc3C2=O)C(=O)N1` [Compound 26], the figure is 1.7 nM.

One may read the DC50 as the midpoint of the concentration-degradation curve.
